Consider 44 molecules from patent US20260325540A1 (priority 2023, published 2026).

The experiment addresses HCoV-229E 3CL protease (Human coronavirus 229E, UniProt P0C6U2). Description: FRET based protease assay, HCoV-229E 3CL. As to conditions: 229E IC50, 6 nM H229E-CoV Chis-3CLpro, 6 μM peptide 1 substrate, 25° C., 1.5 hrs, pH 7.5. Type of experiment: biochemical.

Chain of HCoV-229E 3CL protease (P0C6U2 2966-3267): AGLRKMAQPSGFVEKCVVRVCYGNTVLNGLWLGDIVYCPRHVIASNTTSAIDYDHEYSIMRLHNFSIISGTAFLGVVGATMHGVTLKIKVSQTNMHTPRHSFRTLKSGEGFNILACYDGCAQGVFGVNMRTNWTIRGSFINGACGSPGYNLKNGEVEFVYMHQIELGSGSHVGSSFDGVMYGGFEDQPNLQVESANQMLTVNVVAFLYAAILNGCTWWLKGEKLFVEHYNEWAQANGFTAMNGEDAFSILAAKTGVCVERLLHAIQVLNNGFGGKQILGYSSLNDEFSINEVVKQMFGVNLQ

Turning to `CC(C)C[C@@H]1NC(=O)CCCC[C@@H]2CNC(=O)[C@@H]2C[C@@H](C=O)NC1=O` [Example 1], the half-inhibitory concentration (IC50) fell in the range of 1000 to 20000 nM.
The value for `CC(C)C[C@@H]1NC(=O)CCCC[C@H]2CNC(=O)[C@H]2C[C@@H](C=O)NC1=O` [Example 2] was 1000 to 20000 nM.
Then `CC(C)C[C@@H]1NC(=O)CCCC[C@H]2CNC(=O)[C@@H]2C[C@@H](C=O)NC1=O` [Example 4], with below 100 nM; and `CC(C)C[C@@H]1NC(=O)[C@@H](Cc2ccccc2)CCC[C@@H]2CNC(=O)[C@@H]2C[C@@H](C=O)NC1=O` [Example 9], with 100 to 1000 nM.
Then `CC(C)C[C@@H]1NC(=O)[C@@H](Cc2ccccc2)CCC[C@H]2CNC(=O)[C@@H]2C[C@@H](C=O)NC1=O` [Example 10], with 1000 to 20000 nM; and `CC(C)C[C@@H]1NC(=O)[C@H](Cc2ccccc2)CCC[C@@H]2CNC(=O)[C@@H]2C[C@@H](C=O)NC1=O` [Example 11], with 100 to 1000 nM; and `CC(C)C[C@@H]1NC(=O)[C@H](Cc2ccccc2)CCC[C@H]2CNC(=O)[C@H]2C[C@@H](C=O)NC1=O` [Example 12], with below 100 nM.
Turning to `CC(C)C[C@@H]1NC(=O)[C@@H](C2CCCC2)CCC[C@H]2CNC(=O)[C@H]2C[C@@H](C=O)NC1=O` [Example 13], the half-maximal inhibitory concentration (IC50) was 100 to 1000 nM.
The value for `CC(C)C[C@@H]1NC(=O)[C@@H](C2CCCC2)CCC[C@@H]2CNC(=O)[C@@H]2C[C@@H](C=O)NC1=O` [Example 14] was 100 to 1000 nM.
For `CC(C)C[C@@H]1NC(=O)[C@@H](NC(=O)OC(C)(C)C)CCC[C@H]2CNC(=O)[C@H]2C[C@@H](C=O)NC1=O` [Example 15], the IC50 was 100 to 1000 nM.
`CC(C)C[C@@H]1NC(=O)[C@@H](NC(=O)OC(C)(C)C)CCC[C@@H]2CNC(=O)[C@@H]2C[C@@H](C=O)NC1=O` [Example 16] registered a half-maximal inhibitory concentration (IC50) of 1000 to 20000 nM.
Molecule `CC(C)C[C@@H]1NC(=O)[C@@H](Cc2ccccc2)CCC[C@H]2CNC(=O)[C@@H]2C[C@@H](C=O)NC1=O` [Example 17] registered an IC50 of 100 to 1000 nM.
Then `CC(C)C[C@@H]1NC(=O)[C@@H](CC2CCCC2)CCC[C@H]2CNC(=O)[C@@H]2C[C@@H](C=O)NC1=O` [Example 18], with 100 to 1000 nM; and `CC(C)C[C@@H]1NC(=O)[C@@H](NC(=O)OC(C)(C)C)CCC[C@H]2CNC(=O)[C@@H]2C[C@@H](C=O)NC1=O` [Example 19], with below 100 nM; and `CC(C)C[C@@H]1NC(=O)[C@@H](OC(C)(C)C)CCC[C@H]2CNC(=O)[C@@H]2C[C@@H](C=O)NC1=O` [Example 20], with 1000 to 20000 nM.
For the molecule `CC(C)C[C@@H]1NC(=O)[C@H](Cc2ccccc2)CCC[C@H]2CNC(=O)[C@@H]2C[C@@H](C=O)NC1=O` [Example 21], the IC50 is below 100 nM.
Then `CC(C)C[C@@H]1NC(=O)[C@@H](N(C)C(=O)OC(C)(C)C)CCC[C@H]2CNC(=O)[C@@H]2C[C@@H](C#N)NC1=O` [Example 22], with 1000 to 20000 nM; and `CC(C)C[C@@H]1NC(=O)C(OC2CCCCC2)CCC[C@H]2CNC(=O)[C@@H]2C[C@@H](C#N)NC1=O` (some centres unmarked) [Example 23], with above 20000 nM.
Then `CC(C)C[C@@H]1NC(=O)CCCC[C@H]2CNC(=O)[C@@H]2C[C@@H](C#N)NC1=O` [Example 24], with 100 to 1000 nM.
Then `CC1(C)[C@@H]2[C@H]3C(=O)N[C@H](C#N)C[C@H]4C(=O)NC[C@@H]4CCCCC(=O)N3C[C@@H]21` [Example 25], with 100 to 1000 nM; and `N#C[C@@H]1C[C@H]2C(=O)NC[C@@H]2CCCCC(=O)N2C[C@@H]3CCC[C@@H]3[C@H]2C(=O)N1` [Example 26], with 1000 to 20000 nM.
Molecule `CC(C)C[C@@H]1NC(=O)[C@@H](Cc2ccccc2)CCC[C@H]2CNC(=O)[C@@H]2C[C@@H](C#N)NC1=O` [Example 27] yielded an IC50 of 1000 to 20000 nM.
`CC(C)C[C@@H]1NC(=O)[C@@H](C2CCCC2)CCC[C@H]2CNC(=O)[C@@H]2C[C@@H](C#N)NC1=O` [Example 28] gave an IC50 of 1000 to 20000 nM.
With `CC(C)C[C@@H]1NC(=O)[C@@H](OC(C)(C)C)CCC[C@H]2CNC(=O)[C@@H]2C[C@@H](C#N)NC1=O` [Example 29], the IC50 was above 20000 nM.
The value for `CC(C)C[C@@H]1NC(=O)CCCCC[C@H]2CNC(=O)[C@H]2C[C@@H](C=O)NC1=O` [Example 30] was below 100 nM.
The value for `CC(C)C[C@@H]1NC(=O)CCCCC[C@@H]2CNC(=O)[C@H]2C[C@@H](C=O)NC1=O` [Example 31] was 1000 to 20000 nM.
In the case of `CC(C)C[C@@H]1NC(=O)CCCCC[C@H]2CNC(=O)[C@@H]2C[C@@H](C=O)NC1=O` [Example 32], the concentration for half-maximal inhibition (IC50) was below 100 nM.
The value for `CC(C)C[C@@H]1NC(=O)CCCCC[C@@H]2CCNC(=O)[C@H]2C[C@@H](C=O)NC1=O` [Example 33] was 1000 to 20000 nM; that for `CC(C)C[C@@H]1NC(=O)CCCCC[C@H]2CCNC(=O)[C@@H]2C[C@@H](C=O)NC1=O` [Example 34] was 100 to 1000 nM; that for `CC(C)C[C@@H]1NC(=O)[C@@H](Cc2ccccc2)CCCC[C@@H]2CNC(=O)[C@@H]2C[C@@H](C=O)NC1=O` [Example 35] was 1000 to 20000 nM.
As to `CC(C)C[C@@H]1NC(=O)[C@@H](Cc2ccccc2)CCCC[C@H]2CNC(=O)[C@H]2C[C@@H](C=O)NC1=O` [Example 36], the 50% inhibitory concentration (IC50) was below 100 nM.
The value for `CC(C)C[C@@H]1NC(=O)[C@@H](Cc2ccccc2)CCCC[C@H]2CNC(=O)[C@@H]2C[C@@H](C=O)NC1=O` [Example 37] was below 100 nM; that for `CC(C)C[C@@H]1NC(=O)CCCCC[C@H]2CNC(=O)[C@H]2C[C@@H](C#N)NC1=O` [Example 38] was 100 to 1000 nM; that for `CC(C)C[C@@H]1NC(=O)[C@@H](Cc2ccccc2)CCCC[C@H]2CNC(=O)[C@H]2C[C@@H](C#N)NC1=O` [Example 39] was 100 to 1000 nM.
Then `CC(C)C[C@@H]1NC(=O)[C@@H](Cc2cccc(C(F)(F)F)c2)CCCC[C@H]2CNC(=O)[C@H]2C[C@@H](C#N)NC1=O` [Example 40], with 1000 to 20000 nM.
The molecule `CC(C)C[C@@H]1NC(=O)[C@@H](C2CCCC2)CCCC[C@H]2CNC(=O)[C@H]2C[C@@H](C#N)NC1=O` [Example 41] displayed a half-maximal inhibitory concentration (IC50) above 20000 nM.
Then `CC(C)C[C@@H]1NC(=O)[C@@H](Cc2ccc(F)cc2)CCCC[C@@H]2CNC(=O)[C@@H]2C[C@@H](C#N)NC1=O` [Example 42], with 100 to 1000 nM.
Then `CC(C)C[C@@H]1NC(=O)[C@@H](Cc2ccc(F)cc2)CCCC[C@H]2CNC(=O)[C@H]2C[C@@H](C#N)NC1=O` [Example 43], with 100 to 1000 nM.
On to `CC(C)C[C@@H]1NC(=O)[C@@H](NC(=O)C(C)(C)C)CCCC[C@H]2CNC(=O)[C@H]2C[C@@H](C#N)NC1=O` [Example 44], for which the 50% inhibitory concentration (IC50) was below 100 nM.
Then `CC(C)C[C@@H]1NC(=O)CCCCCC[C@H]2CNC(=O)[C@H]2C[C@@H](C=O)NC1=O` [Example 45], with below 100 nM.
With `CC(C)C[C@@H]1NC(=O)CCCCCC[C@@H]2CNC(=O)[C@@H]2C[C@@H](C=O)NC1=O` [Example 46], the IC50 is 100 to 1000 nM.
Consider `CC(C)C[C@@H]1NC(=O)CCCCCC[C@@H]2CNC(=O)[C@H]2C[C@@H](C=O)NC1=O` [Example 47], for which the IC50 lay within 100 to 1000 nM.
Then `CC(C)C[C@@H]1NC(=O)CCCCCC[C@H]2CNC(=O)[C@@H]2C[C@@H](C=O)NC1=O` [Example 48], with below 100 nM; and `CC(C)C[C@@H]1NC(=O)[C@@H](Cc2ccccc2)CCCCC[C@@H]2CNC(=O)[C@@H]2C[C@@H](C#N)NC1=O` [Example 49], with above 20000 nM.

In general, IC50 refers to the concentration at which inhibition is half-maximal. A high value points to a need for much substance.
